Test results: US9073864B2, “Aromatic ring compound” (TAKEDA PHARMACEUTICAL COMPANY LIMITED, priority 2012, dated 2015)

Biological target: T1, human type glucagon receptor (Homo sapiens, UniProt P47871)
T1 construct: an about 1.4 kb DNA fragment containing glucagon receptor gene was recovered from the gel; expressed in transfected cells; host or cells: FreeStyle CHO cells (transient expression); membrane fraction prepared by homogenisation and ultracentrifugation
Assay: Measurement of glucagon binding inhibitory activity ([125I]-glucagon, receptor membrane protein)
Conditions: test compound 10 μM; 0.4% DMSO alone = 0%, unlabeled glucagon 1 μM = 100%; read-out: inhibitory rate (%) at 10 μM
Protocol: The glucagon binding inhibitory action of the compound of the present invention was evaluated by the following method.
(1) Cloning of Human Glucagon Receptor Gene
Human glucagon receptor gene was cloned by PCR reaction using human pancreas Marathon-ready cDNA (Clontech Laboratories, Inc.) as a template and the following primer set.
The PCR reaction was performed using Advantage 2 polymerase (Clontech Laboratories, Inc.) and according to the attached protocol. The obtained PCR product was subjected to agarose gel (1%) electrophoresis, an about 1.4 kb DNA fragment containing glucagon receptor gene was recovered from the gel, and digested with restriction enzymes EcoRI and NotI. The restriction enzyme-treated DNA was subjected to agarose gel (1%) electrophoresis, an about 1.4 kb DNA fragment was recovered and ligated with plasmid pMSRaneo digested with restriction enzymes EcoRI and NotI to give human type glucagon receptor expression plasmid DNA “pMSRaneo/hGCGR”. The base sequence of the inserted fragment was confirmed to be identical with the object sequence.
(2) Preparation of Glucagon Receptor Membrane Protein
Human type glucagon receptor was expressed using FreeStyle CHO Expression System (Invitrogen™). According to the manual attached to the FreeStyle CHO Expression System, and using the human type glucagon receptor expression plasmid DNA “pMSRaneo/hGCGR” produced in the above-mentioned (1), transient expression was performed by FreeStyle CHO cells. The above-mentioned DNA was transfected, and shaking culture was performed at 37° C., 8% CO2, 125 rpm for 2 days. The culture medium was centrifuged at 2,000 rpm for 10 min and the cells were recovered. The recovered cells were washed with PBS, suspended in homogenate buffer [10 mM NaHCO3 (pH 7.4), 1 mM EDTA, complete EDTA-free (Roche, Ltd., 1 tablet/50 ml)], and the cells were disrupted by a Polytron cell disruption apparatus (Kinematica AG). The disruption solution was centrifuged at 2,000 rpm for 10 min, and the supernatant was recovered. The supernatant was centrifuged at 35,000 rpm for 60 min, and the precipitate was suspended in a buffer [20 mM Tris-HCl (pH 7.4), 5 mM EDTA, complete EDTA-free (Roche, Ltd., 1 tablet/50 ml)] to give a glucagon receptor membrane protein.
(3) Measurement of Glucagon Binding Inhibitory Activity
The reaction was started by adding 50 μl of a glucagon receptor membrane protein solution diluted with a reaction buffer [50 mM HEPES (pH 7.4), 5 mM EGTA, 5 mM magnesium chloride, 0.1% BSA, 0.005% Tween20] to 100 μg/ml, 25 μl of a test compound solution containing 0.4% DMSO, which solution was prepared with the reaction buffer to a compound concentration of 40 μM, and 25 μl of radiolabeled glucagon ([^125I]-Receptor Grade Glucagon; Perkin Elmer Inc.) diluted with the reaction buffer to 200 pM to each well of a 96 well plate (Corning Incorporated). The plate was stood at room temperature for 90 min, then the reaction solution was transferred from the reaction plate onto a 96 well unifilter GF/C plate (Perkin Elmer Inc.) by a cell harvester (Perkin Elmer Inc.), and suctioned to collect a membrane fraction on the filter. The filter was immersed in a 0.3% polyethyleneimine solution in advance to prevent non-specific adsorption of the labeled ligand. The filter was washed 4 times with the reaction buffer, and dried at 42° C. for 2 hr. To each well was added 25 μl of scintillator (MicroScint0; Perkin Elmer Inc.), and the amount of fluorescence was measured by a microplate scintillation counter (TopCount NXT™; Perkin Elmer Inc.).
The inhibitory rate (%) of the well added with the test compound (10 μM; containing 0.4% DMSO solution) was calculated wherein the reaction rate of the well added with 0.4% DMSO alone was 0% inhibitory rate and that of the well added with unlabeled glucagon (final concentration 1 μM) was 100% inhibitory rate.

T1 sequence (P47871 26-477): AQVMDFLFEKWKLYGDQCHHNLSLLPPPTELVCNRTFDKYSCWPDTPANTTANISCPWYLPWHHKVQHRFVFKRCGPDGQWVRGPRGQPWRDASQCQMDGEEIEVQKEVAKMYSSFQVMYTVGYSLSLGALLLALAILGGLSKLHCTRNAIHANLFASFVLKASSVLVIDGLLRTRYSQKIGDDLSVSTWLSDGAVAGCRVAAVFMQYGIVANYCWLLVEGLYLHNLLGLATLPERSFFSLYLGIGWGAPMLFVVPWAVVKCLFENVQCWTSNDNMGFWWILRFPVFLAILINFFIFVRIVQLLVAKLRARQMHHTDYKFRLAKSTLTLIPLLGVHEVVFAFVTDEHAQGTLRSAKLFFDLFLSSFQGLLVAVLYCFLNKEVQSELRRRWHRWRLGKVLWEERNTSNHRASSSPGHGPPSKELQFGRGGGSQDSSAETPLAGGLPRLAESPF

| Structure (SMILES) | inhibition at 10 µM |
| --- | --- |
| O=C(O)[C@@H]1CCCN(C(=O)c2ccc(NC(CCC(F)(F)F)c3ccc(-c4ccccc4)cn3)cc2)C1 (stereo partly drawn) [Example 25, (3R)-1-(4-((4,4,4-trifluoro-1-(5-phenylpyridin-2-yl)butyl)amino)benzoyl)piperidine-3-carboxylic acid] | 71% |
| COc1ccc(-c2ccc(C(CCC(F)(F)F)Nc3ccc(C(=O)N4CCC[C@@H](C(=O)O)C4)cc3)c(C)c2)cc1 (stereo partly drawn) [Example 7, (3R)-1-(4-((4,4,4-trifluoro-1-(4′-methoxy-3-methylbiphenyl-4-yl)butyl)amino)benzoyl)piperidine-3-carboxylic acid] | 91% |
| Cc1cc(-c2ncc(C(C)(C)C)o2)ccc1C(CCC(F)(F)F)Nc1ccc(C(=O)N2CCC[C@@H](C(=O)O)C2)cc1 (stereo partly drawn) [Example 23, (3R)-1-(4-((1-(4-(5-tert-butyl-1,3-oxazol-2-yl)-2-methylphenyl)-4,4,4-trifluorobutyl)amino)benzoyl)piperidine-3-carboxylic acid] | 90% |
| CCc1cnc(-c2ccc(C(Nc3ccc(C(=O)N4CCC[C@@H](C(=O)O)C4)cc3)C(C)C)c(C)c2)nc1 (stereo partly drawn) [Example 112, (3R)-1-(4-((1-(4-(5-ethylpyrimidin-2-yl)-2-methylphenyl)-2-methylpropyl)amino)benzoyl)piperidine-3-carboxylic acid] | 90% |
| Cc1cc(-n2cc3c(n2)CCCC3)ccc1C(Nc1ccc(C(=O)N2CCC[C@@H](C(=O)O)C2)cc1)C(C)C (stereo partly drawn) [Example 117, (3R)-1-(4-((2-methyl-1-(2-methyl-4-(4,5,6,7-tetrahydro-2H-indazol-2-yl)phenyl)propyl)amino)benzoyl)piperidine-3-carboxylic acid] | 90% |
| O=C(O)[C@@H]1CCCN(C(=O)c2ccc(NC(CCC(F)(F)F)c3ccc(-c4ccc(Cl)cc4)cc3)nc2)C1 (stereo partly drawn) [Example 28, (3R)-1-((6-((1-(4′-chlorobiphenyl-4-yl)-4,4,4-trifluorobutyl)amino)pyridin-3-yl)carbonyl)piperidine-3-carboxylic acid] | 98% |
| Cc1cc(-c2ncc(C(F)(F)F)cn2)ccc1C(CCC(F)(F)F)Nc1ccc(C(=O)N2CCC[C@@H](C(=O)O)C2)cc1 (mixture of isomers) [Example 11, (3R)-1-(4-((4,4,4-trifluoro-1-(2-methyl-4-(5-(trifluoromethyl)pyrimidin-2-yl)phenyl)butyl)amino)benzoyl)piperidine-3-carboxylic acid] | 93% |
| Cc1cc(-n2ccc(C(C)C)n2)ccc1C(CCC(F)(F)F)Nc1ccc(C(=O)N2CCC[C@@H](C(=O)O)C2)cc1 (stereo partly drawn) [Example 22, (3R)-1-(4-((4,4,4-trifluoro-1-(4-(3-isopropyl-1H-pyrazol-1-yl)-2-methylphenyl)butyl)amino)benzoyl)piperidine-3-carboxylic acid] | 89% |
| Cc1cc(-c2ccc(F)cc2)ccc1C(CCC(F)(F)F)Nc1ccc(C(=O)N2CCC[C@@H](C(=O)O)C2)cn1 (stereo partly drawn) [Example 6, (3R)-1-((6-((4,4,4-trifluoro-1-(4′-fluoro-3-methylbiphenyl-4-yl)butyl)amino)pyridin-3-yl)carbonyl)piperidine-3-carboxylic acid] | 85% |
| Cc1cc(C(CCC(F)(F)F)Nc2ccc(C(=O)N3CCC[C@@H](C(=O)O)C3)cc2)cc(C)c1-c1ccc(Cl)cc1 (stereo partly drawn) [Example 18, (3R)-1-(4-((1-(4′-chloro-2,6-dimethylbiphenyl-4-yl)-4,4,4-trifluorobutyl)amino)benzoyl)piperidine-3-carboxylic acid] | 86% |
| Cc1cc(-n2cc3c(n2)CCCC3)ccc1C(Nc1ccc(C(=O)N2CCC[C@@H](C(=O)O)C2)cc1)C(C)C (mixture of isomers) [Example 116, (3R)-1-(4-((2-methyl-1-(2-methyl-4-(4,5,6,7-tetrahydro-2H-indazol-2-yl)phenyl)propyl)amino)benzoyl)piperidine-3-carboxylic acid] | 90% |
